Laboratory results published in US20160257697A1, “THIOPHENE-SUBSTITUTED TETRACYCLIC COMPOUNDS AND METHODS OFUSE THEREOF FOR THE TREATMENT OF VIRAL DISEASES” (priority 2013, published 2016).
Where two headings read alike, the source gives them in different places.

What was measured:
Experiment in all cases: microbe, parasite or virus in culture
Type in all cases: cell-based, Hepatitis C virus (HCV)
Conditions in all cases: Replicon Assay A
HCV replicon 2B = system: HCV replicon 2B
Outline: (§1)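 HCV RNA levels were calculated from Ct values (minus intercept, divided by slope) of a Neo primer/probe standard curve, with cyclophilin quantified the same way. Cells were seeded at 2000/well and incubated with compound for 3 days in 5% serum and 0.5% DMSO.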

HCV replicon 1A = system: HCV replicon 1A
Outline: as §1

HCV replicon 1AY93H = system: HCV replicon 1AY93H
Outline: as §1

[1] = read-out: 2B IC50, HCV replicon 2B
[2] = Hepatitis C virus, HCV replicon 1A
[3] = read-out: 1A Y93H IC50, HCV replicon 1A Y93H
[4] = Hepatitis C virus, read-out: 2B IC50, HCV replicon 2B
[5] = Hepatitis C virus, read-out: 1A Y93H IC50, HCV replicon 1A Y93H
[6] = read-out: 1A Y93H IC50, replicon 1AY93H

| Structure (SMILES) | IC50 (HCV replicon 2B; read-out: 2B IC50, replicon 2B) | IC50 (HCV replicon 1A; replicon 1A) | IC50 (HCV replicon 1AY93H; [6]) | also measured |
| --- | --- | --- | --- | --- |
| COC(=O)N[C@H](C(=O)N1CCC[C@H]1c1ncc(-c2cc(F)c3c(c2)OC(c2cc(C)c(C)s2)n2c-3cc3cc(-c4cnc([C@@H]5C[C@H]6C[C@H]6N5C(=O)[C@@H](NC(=O)OC)C(C)C)[nH]4)ccc32)[nH]1)C(C)C (single isomer, unassigned) [Compound 508] | – | – | – | IC50 (HCV replicon 2B; [1]): 7.09 nM; IC50 (HCV replicon 1A; [2]): 0.0409 nM; IC50 (HCV replicon 1AY93H; [3]): 0.608 nM |
| COC(=O)N[C@H](C(=O)N1C2C[C@@H]2C[C@H]1c1nc(-c2ccc3c(c2)cc2n3C(c3ccc(Cl)s3)Oc3cc(-c4c[nH]c([C@@H]5C[C@H]6C[C@H]6N5C(=O)[C@@H](NC(=O)OC)C(C)C)n4)ccc3-2)c[nH]1)C(C)C (mixture of isomers) [Compound 710] | – | – | – | IC50 (HCV replicon 2B; [4]): 1.08 nM; IC50 (HCV replicon 1A; [2]): 0.05 nM; IC50 (HCV replicon 1AY93H; [5]): 0.2 nM |
| CCc1ccc(C2Oc3cc(-c4cnc([C@@H]5CCCN5C(=O)C(NC(=O)OC)C5CCOC(C)(C)C5)[nH]4)cc(F)c3-c3cc4cc(-c5cnc([C@@H]6CCCN6C(=O)[C@@H](NC(=O)OC)C(C)C)[nH]5)ccc4n32)s1 (single isomer, unassigned) [Compound 165] | 0.24 nM | 0.002 nM | 0.27 nM | – |
| CCc1ccc(C2Oc3cc(-c4cnc([C@@H]5CCCN5C(=O)[C@@H](NC(=O)OC)C(C)C)[nH]4)cc(F)c3-c3cc4cc(-c5cnc([C@@H]6C[C@H]7C[C@H]7N6C(=O)C(NC(=O)OC)C6CCOC(C)(C)C6)[nH]5)ccc4n32)s1 (single isomer, unassigned) [Compound 197] | 0.47 nM | 0.0021 nM | 0.1 nM | – |
| COC(=O)NC(C(=O)N1CCC[C@H]1c1ncc(-c2ccc3c(c2)cc2n3C(c3ccc(C4CC4)s3)Oc3cc(-c4cnc([C@@H]5CCCN5C(=O)[C@@H](NC(=O)OC)C5CCOCC5)[nH]4)cc(F)c3-2)[nH]1)C(C)(C)F (single isomer, unassigned) [Compound 174] | 0.16 nM | 0.0011 nM | 0.614 nM | – |
| CCc1ccc(C2Oc3cc(-c4cnc([C@@H]5CCCN5C(=O)[C@@H](NC(=O)OC)C(C)C)[nH]4)cc(F)c3-c3cc4cc(-c5cnc([C@@H]6C[C@@H](F)CN6C(=O)C(NC(=O)OC)C6CCOC(C)(C)C6)[nH]5)ccc4n32)s1 (single isomer, unassigned) [Compound 254] | 3.49 nM | 0.0011 nM | 0.12 nM | – |
| CCc1ccc(C2Oc3cc(-c4cnc([C@@H]5CCCN5C(=O)[C@@H](NC(=O)OC)C(C)C)[nH]4)cc(F)c3-c3cc4cc(-c5cnc([C@@H]6CCCN6C(=O)C(NC(=O)OC)C6CCOC(C)(C)C6)[nH]5)ccc4n32)s1 (single isomer, unassigned) [Compound 153] | 0.51 nM | 0.0021 nM | 0.422 nM | – |
| COC(=O)N[C@H](C(=O)N1CCC[C@H]1c1ncc(-c2cc(F)c3c(c2)OC(c2sc(C4CC4)cc2F)n2c-3cc3cc(-c4cnc([C@@H]5CCCN5C(=O)[C@@H](NC(=O)OC)C(C)C)[nH]4)ccc32)[nH]1)C(C)C (single isomer, unassigned) [Compound 65] | 3.6 nM | – | 3 nM | IC50 (HCV replicon 1A; Hepatitis C virus, replicon 1A): 0.0016 nM |
| CCc1ccc(C2Oc3cc(-c4cnc([C@@H]5CCCN5C(=O)C(NC(=O)OC)C5CCOC(C)(C)C5)[nH]4)cc(F)c3-c3cc4cc(-c5cnc([C@@H]6CCCN6C(=O)C(NC(=O)OC)C6CCOC(C)(C)C6)[nH]5)ccc4n32)s1 (single isomer, unassigned) [Compound 298] | 2.09 nM | 0.0784 nM | 1.22 nM | – |
| COC(=O)N[C@H](C(=O)N1CCC[C@H]1c1ncc(-c2cc(F)c3c(c2)OC(c2cc(C)c(C)s2)n2c-3cc3cc(-c4cnc([C@@H]5C[C@@H](F)CN5C(=O)[C@@H](NC(=O)OC)C(C)C)[nH]4)ccc32)[nH]1)C(C)C (single isomer, unassigned) [Compound 514] | – | – | – | IC50 (HCV replicon 2B; [1]): 48.5 nM; IC50 (HCV replicon 1A; HCV replicon 1A): 0.0474 nM; IC50 (HCV replicon 1AY93H; [3]): 0.272 nM |
| COC(=O)N[C@H](C(=O)N1CCC[C@H]1c1cnc(-c2ccc3c(c2)cc2n3C(c3cc4ccccc4s3)Oc3cc(-c4cnc([C@@H]5CCCN5C(=O)[C@@H](NC(=O)OC)C5CCOCC5)[nH]4)ccc3-2)[nH]1)C1CCOCC1 (single isomer, unassigned) [Compound 810] | – | – | – | IC50 (HCV replicon 2B; [1]): 0.005 nM; IC50 (HCV replicon 1A; HCV replicon 1A): 0.004 nM; IC50 (HCV replicon 1AY93H; [3]): 0.018 nM |
| COC(=O)NC(C(=O)N1CCC[C@H]1c1ncc(-c2ccc3c(c2)cc2n3C(c3ccc(C4CC4)s3)Oc3cc(-c4cnc([C@@H]5CCCN5C(=O)[C@@H](NC(=O)OC)C(C)C)[nH]4)cc(F)c3-2)[nH]1)C1CCO[C@H](C)C1 (single isomer, unassigned) [Compound 140] | 8.69 nM | 0.0407 nM | 5.51 nM | – |
| COC(=O)N[C@H](C(=O)N1C[C@H](F)C[C@H]1c1ncc(-c2ccc3c(c2)OC(c2cc4ccccc4s2)n2c-3cc3cc(-c4cnc([C@@H]5C[C@@H](F)CN5C(=O)[C@@H](NC(=O)OC)C5CCOCC5)[nH]4)ccc32)[nH]1)C(C)C (mixture of isomers) [Compound 807] | – | – | – | IC50 (HCV replicon 2B; [4]): 2 nM; IC50 (HCV replicon 1A; [2]): 0.003 nM; IC50 (HCV replicon 1AY93H; [5]): 0.025 nM |
| COC(=O)N[C@H](C(=O)N1CCC[C@H]1c1ncc(-c2ccc3c(c2)cc2n3C(c3ccc(Cl)s3)Oc3cc(-c4cnc([C@@H]5CCCN5C(=O)[C@H](NC(=O)OC)C(C)C)[nH]4)cc(F)c3-2)[nH]1)C(C)C (mixture of isomers) [Compound 506] | – | – | – | IC50 (HCV replicon 2B; [4]): 0.471 nM; IC50 (HCV replicon 1A; [2]): 0.0171 nM; IC50 (HCV replicon 1AY93H; [5]): 0.397 nM |
| COC(=O)N[C@H](C(=O)N1C[C@H](F)C[C@H]1c1ncc(-c2ccc3c(c2)OC(c2ccc(C)s2)n2c-3cc3cc(-c4cnc([C@@H]5C[C@H]6C[C@H]6N5C(=O)[C@@H](NC(=O)OC)C(C)C)[nH]4)ccc32)[nH]1)C(C)C (single isomer, unassigned) [Compound 707] | – | – | – | IC50 (HCV replicon 2B; [1]): 0.84 nM; IC50 (HCV replicon 1A; HCV replicon 1A): 0.0064 nM; IC50 (HCV replicon 1AY93H; [3]): 0.034 nM |
| COC(=O)N[C@H](C(=O)N1CCC[C@H]1c1ncc(-c2cc(F)c3c(c2)OC(c2ccc(C(C)C)s2)n2c-3cc3cc(-c4cnc([C@@H]5CCCN5C(=O)[C@@H](NC(=O)OC)C5CCOCC5)[nH]4)ccc32)[nH]1)C(C)C (single isomer, unassigned) [Compound 344] | 0.242 nM | – | 0.128 nM | IC50 (HCV replicon 1A; Hepatitis C virus, replicon 1A): 0.0015 nM |
| COC(=O)N[C@H](C(=O)N1CCC[C@H]1c1ncc(-c2cc(F)c3c(c2)OC(c2ccc(C(=O)N(C)C)s2)n2c-3cc3cc(-c4cnc([C@@H]5CCCN5C(=O)[C@@H](NC(=O)OC)C(C)C)[nH]4)ccc32)[nH]1)C(C)C (single isomer, unassigned) [Compound 103] | 1.71 nM | – | 5.15 nM | IC50 (HCV replicon 1A; Hepatitis C virus, replicon 1A): 0.0056 nM |
| CCc1ccc(C2Oc3cc(-c4cnc([C@@H]5CCCN5C(=O)C(NC(=O)OC)C5C[C@@H](C)O[C@@H](C)C5)[nH]4)cc(F)c3-c3cc4cc(-c5cnc([C@@H]6CCCN6C(=O)[C@@H](NC(=O)OC)C(C)C)[nH]5)ccc4n32)s1 (single isomer, unassigned) [Compound 154] | 0.55 nM | 0.0017 nM | 0.36 nM | – |
| COC(=O)NC(C(=O)N1CCC[C@H]1c1ncc(-c2cc(F)c3c(c2)OC(c2ccc(C4CC4)s2)n2c-3cc3cc(-c4cnc([C@@H]5CCCN5C(=O)[C@@H](NC(=O)OC)C(C)C)[nH]4)ccc32)[nH]1)C(C)(C)F (single isomer, unassigned) [Compound 70] | 24.2 nM | – | 10.5 nM | IC50 (HCV replicon 1A; Hepatitis C virus, replicon 1A): 0.0188 nM |
| COC(=O)N[C@H](C(=O)N1CCC[C@H]1c1ncc(-c2cc(F)c3c(c2)OC(c2cc4c(s2)CCC4)n2c-3cc3cc(-c4cnc([C@@H]5C[C@H]6C[C@H]6N5C(=O)[C@@H](NC(=O)OC)C5C[C@@H](C)O[C@@H](C)C5)[nH]4)ccc32)[nH]1)C(C)C (single isomer, unassigned) [Compound 552] | – | – | – | IC50 (HCV replicon 2B; [1]): 0.409 nM; IC50 (HCV replicon 1A; HCV replicon 1A): 0.00978 nM; IC50 (HCV replicon 1AY93H; [3]): 0.839 nM |
| CCc1ccc(C2Oc3cc(-c4cnc([C@@H]5CCCN5C(=O)[C@@H](NC(=O)OC)C(C)C)[nH]4)cc(F)c3-c3cc4cc(-c5cnc([C@@H]6C[C@H]7C[C@H]7N6C(=O)C(NC(=O)OC)C6CCOC(C)(C)C6)[nH]5)ccc4n32)s1 (single isomer, unassigned) [Compound 199] | 33.3 nM | 0.118 nM | 26.5 nM | – |
| COC(=O)NC(C(=O)N1CCC[C@H]1c1ncc(-c2ccc3c(c2)cc2n3C(c3ccc(C4CC4)s3)Oc3cc(-c4cnc([C@@H]5C[C@@H](F)CN5C(=O)[C@@H](NC(=O)OC)C(C)C)[nH]4)cc(F)c3-2)[nH]1)C(C)(C)F (single isomer, unassigned) [Compound 115] | 9.84 nM | 0.0011 nM | 0.05 nM | – |
| COC(=O)N[C@H](C(=O)N1CCC[C@H]1c1ncc(-c2cc(F)c3c(c2)OC(c2cc(F)c(C4CC4)s2)n2c-3cc3cc(-c4cnc([C@@H]5CCCN5C(=O)[C@@H](NC(=O)OC)C(C)C)[nH]4)ccc32)[nH]1)C(C)C (single isomer, unassigned) [Compound 71] | 3.85 nM | – | 1.09 nM | IC50 (HCV replicon 1A; Hepatitis C virus, replicon 1A): 0.0013 nM |
| COCc1ccc(C2Oc3cc(-c4cnc([C@@H]5CCCN5C(=O)[C@@H](NC(=O)OC)C(C)C)[nH]4)cc(F)c3-c3cc4cc(-c5cnc([C@@H]6CCCN6C(=O)[C@@H](NC(=O)OC)[C@@H]6C[C@@H](C)O[C@@H](C)C6)[nH]5)ccc4n32)s1 (single isomer, unassigned) [Compound 535] | – | – | – | IC50 (HCV replicon 2B; [1]): 0.0736 nM; IC50 (HCV replicon 1A; HCV replicon 1A): 0.00895 nM; IC50 (HCV replicon 1AY93H; [3]): 0.0295 nM |
| COC(=O)N[C@H](C(=O)N1C[C@H](F)C[C@H]1c1nc(-c2ccc3c(c2)OC(c2ccc(C)s2)n2c-3cc3cc(-c4c[nH]c([C@@H]5C[C@H]6C[C@H]6N5C(=O)[C@@H](NC(=O)OC)C5CCOCC5)n4)ccc32)c[nH]1)C1CCOCC1 (single isomer, unassigned) [Compound 729] | – | – | – | IC50 (HCV replicon 2B; [1]): 0.034 nM; IC50 (HCV replicon 1A; HCV replicon 1A): 0.028 nM; IC50 (HCV replicon 1AY93H; [3]): 0.22 nM |
